The text below walks through data of US20240336601A1 (Chulalongkorn University, priority 2020, published 2024).

Assay [1] concerns the target interaction between PD-1 and PD-L1 (Homo sapiens, UniProt Q9NZQ7). Briefly: PD-1/PD-L1 protein-protein interaction assay (ALPHA). It is filed as binding. The note with it: 2 nM His-tagged human PD-L1, 0.6 nM PD-1-Fc, AlphaScreen.
Description: PD-1′PD-L1 Protein-Protein Interaction Assay
Amplified Luminescent Proximity Homogeneous Assay (ALPHA) platform was used to evaluate the ability of the compounds to block the interaction between PD-1 and PD-L1. The assays were performed in half volume white 96-well plate in a final volume of 40 μl. Compounds at various concentrations were preincubated with 2 nM His tagged recombinant human PD-L1 protein and 0.6 nM recombinant PD-1 protein with Fc-tag (both reagents were purchased from AcroBiosystems) for 40 minutes. After the preincubation, 20 μg/mL of Alphascreen Ni chelate donor beads (PerkinElmer, USA) and Protein A acceptor beads (PerkinElmer, USA) were added into the well and incubated under reduced light at 25° C. for 120 minutes. The signal was measured with the EnSight Multimode Plate Reader. IC50 values were calculated from the four-parameter logistic curve fit.
Assay [2] addresses T1, PD-1/PD-L1 interaction (Homo sapiens, UniProt Q9NZQ7).
T1 construct: expressed in transfected cells
Briefly: PD-1/PD-L1 blockage cell-based bioassay (Jurkat NFAT luciferase / CHO-PDL1 co-culture). As to conditions: Jurkat NFAT cells co-cultured with CHO-PDL1 cells, 6 h, luminescence.
Description: PD-1/PD-L1 Blockage Cell-Based Bioassay
Jurkat T cells expressing human PD-1 and luciferase gene reporter driven by TCR-mediated NFAT response element (Jurkat NFAT) were co-cultured with CHO-kl cells expressing human PD-L1 and surface-bound TCR activator (CHO-PDL1). […] CHO-PDL1 cells (20,000 cells/well) were seeded overnight. Compounds were added on CHO-PDL1 and incubated for 2 h at 37° C. Jurkat NFAT cells (20,000 cells/well) were diluted in RPMI assay medium (RPMI1640 with 1% FBS) and added into each well. After co-incubation for 6 h at 37° C., luminescence was determined by adding Bio-Glo™ Luciferase reagent (Promega) and measured with a luminescence plate reader. EC50 values were calculated from the four-parameter concentration-response curves.

T1 sequence (Q9NZQ7 19-290): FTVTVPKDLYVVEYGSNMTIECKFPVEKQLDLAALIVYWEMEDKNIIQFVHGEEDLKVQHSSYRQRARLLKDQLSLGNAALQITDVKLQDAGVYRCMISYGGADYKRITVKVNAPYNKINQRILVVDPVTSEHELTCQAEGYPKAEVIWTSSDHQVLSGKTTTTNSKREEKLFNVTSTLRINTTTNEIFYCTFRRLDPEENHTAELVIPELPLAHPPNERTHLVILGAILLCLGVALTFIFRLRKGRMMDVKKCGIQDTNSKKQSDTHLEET
Chain of interaction between PD-1 and PD-L1 (Q9NZQ7 19-238 limits assumed): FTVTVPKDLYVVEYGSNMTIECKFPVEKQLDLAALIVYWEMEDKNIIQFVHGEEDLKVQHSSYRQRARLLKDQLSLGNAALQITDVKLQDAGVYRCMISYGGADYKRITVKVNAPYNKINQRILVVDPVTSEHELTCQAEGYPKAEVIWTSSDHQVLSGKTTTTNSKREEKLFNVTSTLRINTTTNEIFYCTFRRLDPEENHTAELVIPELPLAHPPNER

The IC50 is the midpoint of a concentration-inhibition curve. Read a low IC50 as higher potency. Take `COc1cc(-n2ncc3c(-c4cccc(-c5ccc(CN6CC(C(C)(C)O)C6)c(OC)n5)c4Cl)cccc32)cc(OC)c1CN1CC2(CCC(=O)N2)C1` [Example 140, 2-(4-(4-(2-chloro-3-(5-((3-(2-hydroxypropan-2-yl)azetidin-1-yl)methyl)-6-methoxypyridin-2-yl)phenyl)-1H-indazol-1-yl)-2,6-dimethoxybenzyl)-2,5-diazaspiro[3.4]octan-6-one]: the IC50 in assay [1] was 1 to 10 nM; in assay [2] it was 201 to 2000 nM.

As to `COc1cc(-n2ccc3c(-c4cccc(-c5ccc(CN6CC(C)(O)C6)c(OC)n5)c4Cl)cccc32)cc(OC)c1CN1CC(C)(O)C1` [Example 28], the IC50 in assay [1] is 1 to 10 nM; in assay [2], above 2000 nM.

With `COc1cc(-n2ncc3c(-c4cccc(-c5nc6cc(CN(C)C78CCC(C(=O)O)(CC7)CC8)cc(C#N)c6o5)c4C)cccc32)cc(OC)c1CN1CC(O)C1` [Example 159, 4-(((7-cyano-2-(3-(1-(4-((3-hydroxyazetidin-1-yl)methyl)-3,5-dimethoxyphenyl)-1H-indazol-4-yl)-2-methylphenyl)benzo[d]oxazol-5-yl)methyl)(methyl)amino)bicyclo[2.2.2]octane-1-carboxylic acid], the values for the IC50 in assay [1] and in assay [2] were below 1 nM and below 200 nM, respectively.

Take `COc1nc(-n2ccc3c(-c4ccc5c(c4)OCCO5)cccc32)ccc1CN[C@@H](CO)C(=O)O` [Example 10]: the IC50 in assay [1] is above 100 nM.

Take `COc1cc(-n2ncc3c(-c4cccc(-c5ccc(CN6CC7(CNC(=O)C7)C6)c(OC)n5)c4Cl)cccc32)cc(OC)c1CNC[C@@H](C)O` [Example 112, (R)-2-((6-(2-chloro-3-(1-(4-(((2-hydroxypropyl)amino)methyl)-3,5-dimethoxyphenyl)-1H-indazol-4-yl)phenyl)-2-methoxypyridin-3-yl)methyl)-2,6-diazaspiro[3.4]octan-7-one]: the figures for the IC50 in assay [1] and in assay [2] were below 1 nM and below 200 nM, respectively.

`COc1cc(-n2ccc3c(-c4cccc(-c5ccc(CN6CC[C@@H](O)C6)c(OC)n5)c4Cl)ccnc32)cc(OC)c1CNC[C@@H]1CCC(=O)N1` [Example 34]: the IC50 in assay [1] was 1 to 10 nM; in assay [2], above 2000 nM.

Turning to `COc1cc(-n2ncc3c(-c4cccc(-c5ccc(CN[C@H]6C[C@@H](O)C6)c(OC)n5)c4Cl)cccc32)ncc1CNC[C@@H](C)O` [Example 122, cis-3-(((6-(2-chloro-3-(1-(5-((((R)-2-hydroxypropyl)amino)methyl)-4-methoxypyridin-2-yl)-1H-indazol-4-yl)phenyl)-2-methoxypyridin-3-yl)methyl)amino)cyclobutanol], the results for the IC50 in assay [1] and in assay [2] were 1 to 10 nM and 201 to 2000 nM, respectively.

In the case of `COc1cc(-n2ncc3c(-c4cccc(-c5ccc(CN[C@H]6C[C@@H](O)C6)c(OC)n5)c4Cl)cccc32)ncc1CN[C@H](CO)C(=O)O` [Example 120, ((6-(4-(2-chloro-3-(5-(((cis-3-hydroxycyclobutyl)amino)methyl)-6-methoxypyridin-2-yl)phenyl)-1H-indazol-1-yl)-4-methoxypyridin-3-yl)methyl)-D-serine], the IC50 in assay [1] is below 1 nM; in assay [2] it was 201 to 2000 nM.

`COc1cc(-n2ccc3c(-c4ccc5c(c4)OCCO5)cccc32)cc(OC)c1CNCCNC(C)=O` [Example 3, N-(2-((4-(4-(2,3-dihydrobenzo[b][1,4]dioxin-6-yl)-1H-indol-1-yl)-2,6-dimethoxybenzyl)amino)ethyl)acetamide]: the IC50 in assay [1] was above 100 nM.

As to `COc1cc(-n2ncc3c(-c4cccc(Nc5nc(C(F)F)nc6cc(CN7CC[C@@H](O)C7)cnc56)c4C)cccc32)cc(OC)c1CN(C)C12CCC(C(=O)O)(CC1)CC2` [Example 166, (R)-4-((4-(4-(3-((2-(difluoromethyl)-7-((3-hydroxypyrrolidin-1-yl)methyl)pyrido[3,2-d]pyrimidin-4-yl)amino)-2-methylphenyl)-1H-indazol-1-yl)-2,6-dimethoxybenzyl)(methyl)amino)bicyclo[2.2.2]octane-1-carboxylic acid], the values for the IC50 in assay [1] and in assay [2] were below 1 nM and below 200 nM, respectively.

Regarding `c1cc(-c2ccc3c(c2)OCCO3)c2ccn(-c3nc4c(s3)CNCC4)c2c1` [Example 59, 2-(4-(2,3-dihydrobenzo[b] [1,4]dioxin-6-yl)-1H-indol-1-yl)-4,5,6,7-tetrahydrothiazolo[5,4-c]pyridine], in assay [1], the half-inhibitory concentration (IC50) is above 100 nM.

Regarding `COc1cc(C(=O)n2ccc3c(-c4ccc5c(c4)OCCO5)cccc32)cc(OC)c1CNC(C)(CO)C(=O)O` (stereo not drawn) [Example 7, 2-((4-(4-(2,3-dihydrobenzo[b][1,4]dioxin-6-yl)-1H-indole-1-carbonyl)-2,6-dimethoxybenzyl)amino)-3-hydroxy-2-methylpropanoic acid], the IC50 in assay [1] is above 100 nM.

`Cn1c(CN[C@@H](CO)C(=O)O)cc2ccc(-n3ccc4c(-c5ccc6c(c5)OCCO6)cccc43)cc21` [Example 57, (S)-2-(((4-(2,3-dihydrobenzo[b][1,4]dioxin-6-yl)-1′-methyl-1′H-[1,6′-biindol]-2′-yl)methyl)amino)-3-hydroxypropanoic acid] registered an IC50 in assay [1] above 100 nM.

Compound `COc1cc(-c2cn(C)c3c(-c4ccc5c(c4)OCCO5)cccc23)cc(OC)c1CNC[C@@H]1CCC(=O)N1` [Example 23] registered an IC50 in assay [1] of 10 to 100 nM.

Consider `COc1cc(-n2ccc3c(-c4ccc5c(c4)OCCO5)cccc32)cc(OC)c1CN1C[C@H](O)C[C@@H]1C(=O)O` [Example 2, (2R,4R)-1-(4-(4-(2,3-dihydrobenzo[b][1,4]dioxin-6-yl)-1H-indol-1-yl)-2,6-dimethoxybenzyl)-4-hydroxypyrrolidine-2-carboxylic acid], for which the IC50 in assay [1] is above 100 nM.

Take `N#Cc1cccc(COc2cc(-n3ccc4c(-c5ccc6c(c5)OCCO6)cccc43)ccc2CNCCO)c1` [Example 6, 3-((5-(4-(2,3-dihydrobenzo[b][1,4]dioxin-6-yl)-1H-indol-1-yl)-2-(((2-hydroxyethyl)amino)methyl)phenoxy)methyl)benzonitrile]: the IC50 in assay [1] was above 100 nM.

The compound `COc1nc(-n2ccc3c(-c4ccc5c(c4)OCCO5)cccc32)cnc1CNC[C@@H]1CCC(=O)N1` [Example 60] gave a 50% inhibitory concentration (IC50) in assay [1] above 100 nM.

`COc1nc(-n2ccc3c(-c4ccc5c(c4)OCCO5)cccc32)ccc1CN1CC2(C1)CN(C(C)=O)C2` [Example 58, 1-(6-((6-(4-(2,3-dihydrobenzo[b][1,4]dioxin-6-yl)-1H-indol-1-yl)-2-methoxypyridin-3-yl)methyl)-2,6-diazaspiro[3.3]heptan-2-yl)ethanone]: in assay [1], the IC50 is above 100 nM.

Take `COc1cc(-n2ccc3c(-c4ccc5c(c4)OCCO5)cccc32)cc(OC)c1CNC1CNC(=O)C1` (stereo not drawn) [Example 16]: in assay [1], the IC50 is above 100 nM.

In assay [1], `COc1nc(-n2ccc3c(-c4ccc5c(c4)OCCO5)cccc32)ccc1CN1CC(C)(O)C1` [Example 12, ((6-(4-(2,3-dihydrobenzo[b][1,4]dioxin-6-yl)-1H-indol-1-yl)~2~methoxypyridin-3-yl)methyl)-L-serine] returned an IC50 above 100 nM.

In assay [1], `Cc1nn(CCNC[C@@H]2CCC(=O)N2)c2ccc(-n3ccc4c(-c5ccc6c(c5)OCCO6)cccc43)cc12` [Example 62, (S)-5-(((2-(5-(4-(2,3-dihydrobenzo[b] [1,4]dioxin-6-yl)-1H-indol-1-yl)-3-methyl-1H-indazol-1-yl)ethyl)amino)methyl)pyrrolidin-2-one] gave an IC50 above 100 nM.

Take `COc1cc(CNC[C@@H]2CCC(=O)N2)cc(-n2ccc3c(-c4ccc5c(c4)OCCO5)cccc32)c1` [Example 19]: in assay [1], the IC50 was above 100 nM.

Compound `O=C(O)[C@H](CO)NCc1ccc(-n2ccc3c(-c4ccc5c(c4)OCCO5)cccc32)nc1` [Example 9] came in with an IC50 in assay [1] above 100 nM.

The compound `COc1cc(-n2ccc3c(-c4cccc(NC(=O)c5ccc(CNC(C)(CO)C(=O)O)cc5)c4C)cccc32)cc(OC)c1CNC(C)(CO)C(=O)O` (stereo not drawn) [Example 56, 2-((4-((3-(1-(4-(((2-carboxy-1-hydroxypropan-2-yl)amino)methyl)-3,5-dimethoxyphenyl)-1H-indol-4-yl)-2-methylphenyl)carbamoyl)benzyl)amino)-3-hydroxy-2-methylpropanoic acid] showed a half-inhibitory concentration (IC50) in assay [1] above 100 nM.

In assay [1], `COc1cc(-n2ccc3c(-c4ccc5c(c4)OCCO5)cccc32)cnc1CNC[C@@H]1CCC(=O)N1` [Example 61, (S)-5-((((5-(4-(2,3-dihydrobenzo[b][1,4]dioxin-6-yl)-1H-indol-1-yl)-3-methoxypyridin-2-yl)methyl)amino)methyl)pyrrolidin-2-one] showed an IC50 above 100 nM.

Regarding `Cn1cc(-n2ccc3c(-c4ccc5c(c4)OCCO5)cccc32)c2ncc(CNCC(C)(C)C(=O)O)cc21` [Example 25], the IC50 in assay [1] was above 100 nM.

In assay [1], `COc1cc(-c2c[nH]c3c(-c4ccc5c(c4)OCCO5)cccc23)cc(OC)c1CNC[C@@H]1CCC(=O)N1` [Example 24] came in with an IC50 above 100 nM.

`Cc1cc2cc(CNC[C@@H]3CCC(=O)N3)cnc2c(-n2ccc3c(-c4ccc5c(c4)OCCO5)cccc32)n1` [Example 63, (S)-5-((((8-(4-(2,3-dihydrobenzo[b][1,4]dioxin-6-yl)-1H-indol-1-yl)-6-methyl-1,7-naphthyridin-3-yl)methyl)amino)methyl)pyrrolidin-2-one]: the IC50 in assay [1] was above 100 nM.

`COc1nc(N2CCc3c(-c4ccc5c(c4)OCCO5)cccc32)ccc1CNC[C@@H]1CCC(=O)N1` [Example 80, (S)-5-((((6-(4-(2,3-dihydrobenzo[b][1,4]dioxin-6-yl)indolin-1-yl)-2-methoxypyridin-3-yl)methyl)amino)methyl)pyrrolidin-2-one]: the IC50 in assay [1] was above 100 nM.

Consider `Cc1cc(CN2CC(C)(C(=O)O)C2)cc(-n2ccc3c(-c4ccc5c(c4)OCCO5)cccc32)n1` [Example 86, 1-((2-(4-(2,3-dihydrobenzo[b][1,4]dioxin-6-yl)-1H-indol-1-yl)-6-methylpyridin-4-yl)methyl)-3-methylazetidine-3-carboxylic acid], for which the IC50 in assay [1] is above 100 nM.

`CC(CO)(NCc1ccc(-n2ccc3c(-c4ccc5c(c4)OCCO5)cccc32)cc1OCc1cccc(C#N)c1)C(=O)O` (stereo not drawn) [Example 5, 2-((2-((3-cyanobenzyl)oxy)-4-(4-(2,3-dihydrobenzo[b][1,4]dioxin-6-yl)-1H-indol-1-yl)benzyl)amino)-3-hydroxy-2-methylpropanoic acid] returned an IC50 in assay [1] above 100 nM.
